Source: the supplement of paper PMC13207355
Counter-ions that a name gives are not always drawn.

Columns and labels:
Details in all cases: exposure time: 72 h
E13 [1] = patient-derived glioblastoma stem cells of classical subtype; assay: phenotypic distance (Euclidean, principal components) from DMSO controls (arbitrary units); higher = stronger morphological change
E34 [2] = patient-derived glioblastoma stem cells of proneural subtype; assay: as above
E31 [3] = patient-derived glioblastoma stem cells of proneural subtype; assay: as above
FT3469 [4] = normal neural stem cell line; assay: as above
E28 [5] = patient-derived glioblastoma stem cells of classical subtype; assay: as above
E57 [6] = patient-derived glioblastoma stem cells of mesenchymal subtype; assay: as above
E21 [7] = patient-derived glioblastoma stem cells of mesenchymal subtype; assay: as above
E13 [8] = assay: surviving fraction (nuclei count normalised to DMSO); higher = more cells surviving (less toxic)
E34 [9] = assay: as above
E31 [10] = assay: as above
FT3469 [11] = assay: as above
E28 [12] = assay: as above
E57 [13] = assay: as above
E21 [14] = assay: as above
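Throughout, for phenotypic distance (Euclidean, principal components) from DMSO controls: cell Painting imaging in 384-well plates, CellProfiler features reduced to at least 20 principal components, Euclidean distance versus same-plate DMSO vehicle wells (0.1% v/v), median over six images per well.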
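Throughout, for surviving fraction (nuclei count normalised to DMSO): nuclei counted by high-content imaging of Hoechst-stained cells in laminin-coated 384-well plates, relative to 0.1% DMSO vehicle wells, with staurosporine as cell-death control.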

N=C(N)c1ccc(-c2ccc(-c3ccc(C(=N)N)cc3)o2)cc1 [Furamidine dihydrochloride]
Details	phenotypic distance	surviving fraction
E13 [1], 4.1 nM	0.262	–
E13 [1], 12.3 nM	0.642	–
E13 [1], 37 nM	0.687	–
E13 [1], 111.1 nM	0.7	–
E13 [1], 333.3 nM	1.05	–
E13 [1], 1000 nM	1.58	–
E13 [1], 3000 nM	2.41	–
E13 [8], 4.1 nM	–	0.977
E13 [8], 12.3 nM	–	0.987
E13 [8], 37 nM	–	0.954
E13 [8], 111.1 nM	–	0.919
E13 [8], 333.3 nM	–	1.02
E13 [8], 1000 nM	–	1.1
E13 [8], 3000 nM	–	1.07
E21 [7], 4.1 nM	2.21	–
E21 [7], 12.3 nM	0.291	–
E21 [7], 37 nM	0.446	–
E21 [7], 111.1 nM	0.567	–
E21 [7], 333.3 nM	1.09	–
E21 [7], 1000 nM	1.6	–
E21 [7], 3000 nM	3.09	–
E21 [14], 4.1 nM	–	0.927
E21 [14], 12.3 nM	–	0.912
E21 [14], 37 nM	–	1
E21 [14], 111.1 nM	–	1.01
E21 [14], 333.3 nM	–	1.02
E21 [14], 1000 nM	–	1.03
E21 [14], 3000 nM	–	0.975
E28 [5], 4.1 nM	0.942	–
E28 [5], 12.3 nM	0.731	–
E28 [5], 37 nM	0.378	–
E28 [5], 111.1 nM	0.509	–
E28 [5], 333.3 nM	0.894	–
E28 [5], 1000 nM	1.65	–
E28 [5], 3000 nM	3.07	–
E28 [12], 4.1 nM	–	0.932
E28 [12], 12.3 nM	–	1.02
E28 [12], 37 nM	–	0.995
E28 [12], 111.1 nM	–	1.04
E28 [12], 333.3 nM	–	0.901
E28 [12], 1000 nM	–	1.05
E28 [12], 3000 nM	–	0.861
E31 [3], 4.1 nM	0.537	–
E31 [3], 12.3 nM	0.559	–
E31 [3], 37 nM	0.53	–
E31 [3], 111.1 nM	0.588	–
E31 [3], 333.3 nM	0.79	–
E31 [3], 1000 nM	1.64	–
E31 [3], 3000 nM	2.69	–
E31 [10], 4.1 nM	–	0.988
E31 [10], 12.3 nM	–	0.965
E31 [10], 37 nM	–	0.911
E31 [10], 111.1 nM	–	1.08
E31 [10], 333.3 nM	–	1.01
E31 [10], 1000 nM	–	1.04
E31 [10], 3000 nM	–	1.2
E34 [2], 4.1 nM	0.516	–
E34 [2], 12.3 nM	0.962	–
E34 [2], 37 nM	0.515	–
E34 [2], 111.1 nM	0.866	–
E34 [2], 333.3 nM	1.16	–
E34 [2], 1000 nM	2.15	–
E34 [2], 3000 nM	3.96	–
E34 [9], 4.1 nM	–	0.983
E34 [9], 12.3 nM	–	1.13
E34 [9], 37 nM	–	1.1
E34 [9], 111.1 nM	–	1.21
E34 [9], 333.3 nM	–	1.2
E34 [9], 1000 nM	–	1.09
E34 [9], 3000 nM	–	1.2
E57 [6], 4.1 nM	0.435	–
E57 [6], 12.3 nM	0.369	–
E57 [6], 37 nM	0.461	–
E57 [6], 111.1 nM	0.581	–
E57 [6], 333.3 nM	0.809	–
E57 [6], 1000 nM	1.18	–
E57 [6], 3000 nM	2	–
E57 [13], 4.1 nM	–	0.99
E57 [13], 12.3 nM	–	0.991
E57 [13], 37 nM	–	1.08
E57 [13], 111.1 nM	–	0.988
E57 [13], 333.3 nM	–	0.981
E57 [13], 1000 nM	–	0.956
E57 [13], 3000 nM	–	0.828
FT3469 [4], 4.1 nM	0.956	–
FT3469 [4], 12.3 nM	0.513	–
FT3469 [4], 37 nM	0.833	–
FT3469 [4], 111.1 nM	0.595	–
FT3469 [4], 333.3 nM	0.891	–
FT3469 [4], 1000 nM	1.39	–
FT3469 [4], 3000 nM	3.24	–
FT3469 [11], 4.1 nM	–	0.904
FT3469 [11], 12.3 nM	–	0.883
FT3469 [11], 37 nM	–	0.856
FT3469 [11], 111.1 nM	–	0.949
FT3469 [11], 333.3 nM	–	1.12
FT3469 [11], 1000 nM	–	1
FT3469 [11], 3000 nM	–	1

COc1c(N2CCNC(C)C2)c(F)cc2c(=O)c(C(=O)O)cn(C3CC3)c12 (stereo unspecified) [Gatifloxacin]
Details	phenotypic distance	surviving fraction
E13 [1], 4.1 nM	0.675	–
E13 [1], 12.3 nM	0.638	–
E13 [1], 37 nM	0.734	–
E13 [1], 111.1 nM	0.5	–
E13 [1], 333.3 nM	0.838	–
E13 [1], 1000 nM	0.825	–
E13 [1], 3000 nM	0.702	–
E13 [8], 4.1 nM	–	0.802
E13 [8], 12.3 nM	–	0.892
E13 [8], 37 nM	–	0.946
E13 [8], 111.1 nM	–	0.909
E13 [8], 333.3 nM	–	1.06
E13 [8], 1000 nM	–	0.806
E13 [8], 3000 nM	–	0.89
E21 [7], 4.1 nM	1	–
E21 [7], 12.3 nM	0.609	–
E21 [7], 37 nM	0.741	–
E21 [7], 111.1 nM	0.873	–
E21 [7], 333.3 nM	0.581	–
E21 [7], 1000 nM	1	–
E21 [7], 3000 nM	0.84	–
E21 [14], 4.1 nM	–	0.949
E21 [14], 12.3 nM	–	0.874
E21 [14], 37 nM	–	0.875
E21 [14], 111.1 nM	–	0.802
E21 [14], 333.3 nM	–	0.988
E21 [14], 1000 nM	–	0.814
E21 [14], 3000 nM	–	0.929
E28 [5], 4.1 nM	0.347	–
E28 [5], 12.3 nM	0.661	–
E28 [5], 37 nM	0.66	–
E28 [5], 111.1 nM	0.527	–
E28 [5], 333.3 nM	0.675	–
E28 [5], 1000 nM	0.514	–
E28 [5], 3000 nM	0.819	–
E28 [12], 4.1 nM	–	0.883
E28 [12], 12.3 nM	–	0.852
E28 [12], 37 nM	–	0.951
E28 [12], 111.1 nM	–	0.859
E28 [12], 333.3 nM	–	0.769
E28 [12], 1000 nM	–	0.982
E28 [12], 3000 nM	–	1.01
E31 [3], 4.1 nM	0.659	–
E31 [3], 12.3 nM	2.43	–
E31 [3], 37 nM	0.809	–
E31 [3], 111.1 nM	0.741	–
E31 [3], 333.3 nM	0.52	–
E31 [3], 1000 nM	0.474	–
E31 [3], 3000 nM	0.691	–
E31 [10], 4.1 nM	–	1.03
E31 [10], 12.3 nM	–	0.99
E31 [10], 37 nM	–	0.946
E31 [10], 111.1 nM	–	0.898
E31 [10], 333.3 nM	–	1.01
E31 [10], 1000 nM	–	1.04
E31 [10], 3000 nM	–	1.24
E34 [2], 4.1 nM	0.671	–
E34 [2], 12.3 nM	0.619	–
E34 [2], 37 nM	0.973	–
E34 [2], 111.1 nM	0.498	–
E34 [2], 333.3 nM	0.426	–
E34 [2], 1000 nM	0.62	–
E34 [2], 3000 nM	0.52	–
E34 [9], 4.1 nM	–	0.932
E34 [9], 12.3 nM	–	0.945
E34 [9], 37 nM	–	1.06
E34 [9], 111.1 nM	–	0.967
E34 [9], 333.3 nM	–	1.09
E34 [9], 1000 nM	–	0.908
E34 [9], 3000 nM	–	0.955
E57 [6], 4.1 nM	0.413	–
E57 [6], 12.3 nM	0.404	–
E57 [6], 37 nM	0.488	–
E57 [6], 111.1 nM	0.447	–
E57 [6], 333.3 nM	0.584	–
E57 [6], 1000 nM	0.465	–
E57 [6], 3000 nM	0.475	–
E57 [13], 4.1 nM	–	0.966
E57 [13], 12.3 nM	–	1.04
E57 [13], 37 nM	–	0.993
E57 [13], 111.1 nM	–	1.05
E57 [13], 333.3 nM	–	1.06
E57 [13], 1000 nM	–	1.05
E57 [13], 3000 nM	–	1.05
FT3469 [4], 4.1 nM	1.03	–
FT3469 [4], 12.3 nM	0.624	–
FT3469 [4], 37 nM	0.658	–
FT3469 [4], 111.1 nM	0.568	–
FT3469 [4], 333.3 nM	0.713	–
FT3469 [4], 1000 nM	0.561	–
FT3469 [4], 3000 nM	1.24	–
FT3469 [11], 4.1 nM	–	0.737
FT3469 [11], 12.3 nM	–	0.928
FT3469 [11], 37 nM	–	0.867
FT3469 [11], 111.1 nM	–	0.774
FT3469 [11], 333.3 nM	–	0.957
FT3469 [11], 1000 nM	–	0.995
FT3469 [11], 3000 nM	–	0.79
